According to US9410958B2, “Alkyne-activated fluorogenic azide compounds and methods of use thereof” (The Regents of the University of California, priority 2014, dated 2016):

Columns and labels:
[1] = test system: sialic acids in developing zebrafish; assay: Visualizing sialic acids in developing zebrafish; type: in vivo; details: 24 or 36 hpf, imaged without washing
Method: The probes were tested for visualization of glycans in vivo. […] To test the utility of CalFluors in this system for such applications, zebrafish embryos at the single-cell stage were injected with SiaNAl. After either 24 or 36 hours post fertilization (hpf), the embryos were bathed in a solution containing a CalFluor probe along with copper catalyst.
Zebrafish were injected with 50 pmol SiaNAl at the one to four-cell stage and allowed to develop over time. (A) Real-time labeling of sialic acids. After 24 hpf, zebrafish were incubated in a solution containing 1 μM CalFluor 580 and copper catalyst. […] (B) Comparing no-wash labeling performance by azide probes. After 36 hpf, the embryos were transferred to a solution containing the fluorophore (1 μM for CalFluor 580 and AlexaFluor 594 alkyl azide, or 5 μM for 3-azido-7-hydroxycoumarin) and copper catalyst and imaged without washing after 20 minutes.

fixed HEK 293T cells = assay: No-wash labeling of glycoproteins on fixed cells; type: cell-based; details: 10 μM probe, 100 μM TBTA, 1 mM CuSO4, 2 mM sodium ascorbate
Method: (A) Labeling glycoproteins on live cell surfaces. […] (B) Labeling glycoproteins on fixed cells.
Fixed (3% paraformaldehyde) Ac4ManNAl-treated HEK 293T cells were also evaluated as substrates CalFluor labeling. In this case, copper-click reaction with 50 μM CuSO4 and 300 μM BTTAA gave poor labeling, potentially due to sequestration of the copper catalyst by denatured proteins. However, use of higher catalyst concentrations (100 μM TBTA, 1 mM CuSO4, 2 mM sodium ascorbate) gave robust labeling with 10 μM CalFluor dyes (FIG. 34B). […] Similar results were achieved when performing the same experiments on fixed CHO K1 cells.

[2] = Photophysical properties and fluorescence quantum yields of Si-rhodamines in PBS pH 7.4; type: physicochemical
Method: The fluorescence quantum yields of the purified amino, azido, and triazolyl Si-rhodamines were measured in pH 7.4 phosphate buffered saline (PBS) using cresyl violet in methanol (Φfl=0.54) as a standard (Table 1). […] The best candidate of the four, 8-azidonaphthyl-substituted Si-rhodamine 1, afforded only a 5-fold increase in fluorescence quantum yield as compared with the 29-fold enhancement observed with the corresponding fluorescein.
Fluorescence quantum yields were measured by creating 2 mM stocks of dyes in MeOH. The dyes were then diluted to 20 μM in PBS, then further diluted in PBS to various final concentrations. The absorbance and emission spectra of five different concentrations of dye were measured while keeping maximum absorbance under 0.2. Solutions of probe were excited at 600 nm, and emission was integrated from 600 to 800 nm. Plotting integrated emission vs. absorbance at 600 nm yielded a line, whose slope corresponds to the fluorescence quantum yield. Absolute quantum yields were determined by comparison with the slope of the line measured for cresyl violet in MeOH (Φfl=0.54). The reported quantum yields are the average of three sets of measurements. Absorbance spectra were recorded on a Varian Cary 50 UV-Visible spectrophotometer. Fluorescence spectra were recorded on a Photon Technology International Quanta Master 4 L-format scanning spectrofluorometer equipped with an LPS-220B 75-W xenon lamp and power supply, A-1010B lamp housing with an integrated igniter, switchable 814 photon counting/analog photomultiplier detection unit, and MD5020 motor driver. Measurements were made in 1 cm×0.4 cm quartz cuvettes with a total sample volume of 1 mL.

mammalian cells = assay: Mammalian cell surface labeling of Ac4ManNAl-treated cells; type: cell-based; details: cells labeled with Ac4ManNAl
Method: Compound 9 was tested as a biological imaging reagent using mammalian cells that had been metabolically labeled with peracetylated N-pentynoylmannosamine (Ac4ManNAl), which is metabolized to N-pentynoyl sialic acid (SiaNAl) and presented on cell-surface glycoconjugates. […] It was hypothesized that replacing the methoxy groups with more water soluble alkoxy substituents would maintain the electronic balance between the pendant aryl and the Si-xanthene moieties while enhancing hydrophilicity. To this end, compound 10 was synthesized in six steps from 2,4-difluoronitrobenzene (FIG. 5, and Scheme 1).
Finally, 2.5 μL 1 mM azido fluorophore in 4:1 PBS/MeOH was added. […] Microscopy was performed using a Zeiss AxioVert 200M inverted microscope using a Plan-Neofluar 40×/0.75 objective. Exposure time was 1000 ms using the FITC, Cy3, or Cy5 filters. Images were acquired and processed using SlideBook 5.0, and are shown as a single z-plane.

[3] = test system: M. smegmatis, C. glutamicum, L. monocytogenes; assay: No-wash peptidoglycan labeling with compound 11; type: cell-based; details: endobcnDala 14-treated, 10 or 20 μM probe, 1 hour
Method: Finally, the bacteria were imaged using the NIR fluorogenic azide probes. It was confirmed that azido Si-rhodamines 9, 10, and 11 would undergo an enhancement in fluorescence upon reaction with cyclooctynes. These probes were incubated with endo-bicyclononynol in vitro to generate triazole products (FIG. 24A). […] All three bacterial strains were incubated with endobcnDala 14 as before, but after washing away excess amino acid, the bacteria were incubated with 10 or 20 μM 11 for 1 hour and directly imaged without washing away excess probe (FIG. 7B). […] While the biosynthetic machinery can tolerate fluorophore-conjugated D-amino acids, allowing one-step PG imaging versus our two-step metabolic/chemical labeling approach, chemical reporter groups are much smaller than long-wavelength fluorophores and therefore minimize possible biological perturbations. […] It is hypothesized that the presence of an outer membrane (though apparently not a mycobacterial “mycomembrane”, FIG. 8A-D) limits access of compound 11 to PG. By contrast, smaller dyes were able to access both terminal alkynes and cyclooctynes in metabolically labeled E. coli PG (FIG. 27).
The bacteria were incubated with either endobcnDala or Dala and washed as described above. […]

CHO K1 cells = assay: No-wash cell surface labeling of SiaNAl residues, CHO K1; type: cell-based
Method: Si-rhodamine 10 was evaluated as a reagent for imaging SiaNAl residues on live cell surfaces. CHO K1 cells were incubated with 50 μM Ac4ManNAl for 3 days, washed, and then incubated with 5 μM 10, 50 μM CuSO4, 300 μM BTTAA, and 1 mM sodium ascorbate. […] Cell-surface glycan labeling was visualized as it occurred in real time (FIG. 14). Background labeling was minimal on control cells treated with N-acetylmannosamine (Ac4ManNAc) (FIG. 13).

Escherichia coli = assay: No-wash peptidoglycan labeling of Gram-negative Escherichia coli; type: cell-based
Method: E. coli incubated with 5 mM endobcnDala or Dala for 2 h from a starting OD of 0.05 and imaged in the presence of 20 μM of azido Si-rhodamine 11 as described above. Only a fraction of the bacteria incubated with endobcnDala were fluorescently labeled under these conditions. (A), (C) Fluorescence and brightfield images of E. coli incubated with 5 mM endobcnDala. (B), (D) Fluorescence and brightfield images of E. coli incubated with 5 mM Dala. Scale bar=10 μm. […] Scale bar=1 μm.
Finally, the bacteria were imaged using the NIR fluorogenic azide probes. It was confirmed that azido Si-rhodamines 9, 10, and 11 would undergo an enhancement in fluorescence upon reaction with cyclooctynes. These probes were incubated with endo-bicyclononynol in vitro to generate triazole products (FIG. 24A). […] All three bacterial strains were incubated with endobcnDala 14 as before, but after washing away excess amino acid, the bacteria were incubated with 10 or 20 μM 11 for 1 hour and directly imaged without washing away excess probe (FIG. 7B). […] While the biosynthetic machinery can tolerate fluorophore-conjugated D-amino acids, allowing one-step PG imaging versus our two-step metabolic/chemical labeling approach, chemical reporter groups are much smaller than long-wavelength fluorophores and therefore minimize possible biological perturbations. […]

HEK 293T cells = assay: No-wash live cell surface labeling and mitochondrial co-staining, HEK 293T
Method: Cells were grown in 8-well Lab-Tek Chambered Coverglass systems in media (HAM-F12 for CHO K1 cells, DMEM for HEK 293T cells) containing 10% fetal bovine serum, penicillin/streptomycin, and either 50 μM Ac4ManNAl or Ac4ManNAc for 3 d at 37° C., as described previously. The cells were then washed with 3×300 μL PBS, then incubated with 100 μL freshly prepared click solution. Click solution comprised of 50 μM CuSO4, 300 μM BTTAA, 2.5 mM sodium ascorbate, and 5 μM azido Si-rhodamine. This was prepared by first adding 0.5 μL 50 mM CuSO4 in H2O and 3 μL 50 mM BTTAA in H2O to 481.5 μL PBS. Next, 12.5 μL freshly prepared 100 mM sodium ascorbate in PBS was added. Finally, 2.5 μL 1 mM azido Si-rhodamine in 4:1 PBS/MeOH was added. After 15 min, the reactions were quenched with the addition of 1 μL of 100 mM bathocuproine disulfonate (BCS) in H2O (final concentration 1 mM). […] For real-time imaging, images were acquired as the labeling progressed without quenching the reaction.
HEK 293T cells were grown in a LabTek 8-well chambered glass slide in DMEM containing fetal bovine serum, penicillin/streptomycin for 3 d at 37° C. The cells were then incubated with 100 nM MitoTracker Green FM and 1 μg/mL Hoechst 33342 in fresh media for 30 min at 37° C., then media removed and the cells incubated with 100 μL PBS containing 5 μM 10. The cells were then directly imaged.
The CalFluors' performance in no-wash cell imaging experiments was evaluated. Using established methods, cell-surface glycoconjugates were metabolically labeled with peracetylated N-pentynoyl mannosamine (Ac4ManNAl), which introduces terminal alkyne groups into sialic acid residues (SiaNAl). HEK 293T cells treated in this fashion were then incubated, without fixation, with a cocktail containing 50 μM CuSO4, 300 μM BTTAA, 5 mM sodium ascorbate and 10 μM CalFluor dye.
Cells were grown with 50 μM Ac4ManNAl or Ac4ManNAc for 3 days, then subjected to click labeling with CalFluor probes. (A) Labeling glycoproteins on live cell surfaces. Cells were treated with 10 μM azide probe, 50 μM CuSO4, 300 μM BTTAA ligand, and 5 mM sodium ascorbate. The reaction was quenched with 1 mM BCS and the cells imaged without further wash steps. (B) Labeling glycoproteins on fixed cells. Cells were fixed with 3% paraformaldehyde, then treated with 10 μM CalFluor probe, 1 mM CuSO4, 100 μM TBTA ligand, and 2 mM sodium ascorbate. 0.1 mg/mL BSA was added to prevent the TBTA from precipitating over the course of the reaction.

[4] = test system: wild-type L. monocytogenes; assay: D-alanine competition experiment; details: 5 mM cyclooctyne amino acid, 0 or 20 mM D-alanine
Method: The bacteria were incubated with 5 mM cyclooctyne amino acid, in the presence of either 0 or 20 mM D-alanine, and labeled following the general procedure.
Bacteria were grown to an optical density (OD) of 0.4 in their respective media (7H9 for M. smegmatis, LB for C. glutamicum, BHI for L. monocytogenes) at 37° C. (M. smegmatis and L. monocytogenes) or 30° C. (C. glutamicum). Then, 5 mM D-amino acid was added (from a 1 M stock in H2O, 1 eq. NaOH was added to help solubilize compounds 12, 13, and 14) and the cells grown for one doubling time. The bacteria were then added to a 96-well V-bottom plate at 200 μL/well and pelleted by centrifugation at 3500 rpm for 3 min. The supernatant was removed and the cells resuspended in 200 μL PBS and pelleted again. This wash process was repeated twice more. The cells were then incubated with 100 μL of 20 μM azido-PEG3-carboxyrhodamine 110 (Click Chemistry Tools) in PBS (made by diluting a 1 mM stock in 9:1 PBS/DMSO) and placed in a 37° C. shaker for 1 h. Alternatively, for alkDala, labeling was performed by incubation with 100 μL of 20 μM azido-PEG3-carboxyrhodamine 110, 128 μM TBTA, 1 mM CuSO4, and 1.2 mM sodium ascorbate in PBS in a 37° C. shaker for 1 h. The cells were washed three times, then fixed with 4% paraformaldehyde for 10 min at rt. The cells were washed another three times, then studied by flow cytometry and microscopy.

[5] = in methanol; cited from earlier work

Molecule: [N-]=[N+]=Nc1cc2ccc(O)cc2oc1=O
- no-wash alkyne-dependent labeling [1]: obscured alkyne-dependent labeling
- labeling of fixed cells (fixed HEK 293T cells): performed comparably to the CalFluors

Molecule: COc1cc(OC)c(C2=C3C=CC(=[N+](C)C)C=C3[Si](C)(C)c3cc(N(C)C)ccc32)cc1N=[N+]=[N-] [Compound 9-N3, 3-Azido-4,6-dimethoxy-Si-rhodamine]
- λabs [2]: 654 nm
- λem [2]: 666 nm
- Φfl ([2]; cresyl violet in methanol as standard): 0.0042
- Change in Φfl ([2]; increase (↑), triazole relative to the azide): 48 fold
- background labeling (mammalian cells): significant alkyne-independent background labeling even after repeated washing steps

Molecule: CN(C)c1ccc2c(c1)[Si](C)(C)C1=CC(=[N+](C)C)C=CC1=C2c1cc(N=[N+]=[N-])c(OCCOCCOS(=O)(=O)O)cc1OCCOCCOS(=O)(=O)[O-] [Compound 11]
- no-wash fluorescence signal on bacteria [3]: Clear fluorescence signal over background
- cell-surface labeling (CHO K1 cells; Ac4ManNAl-treated CHO K1, no wash, 15 min): robust cell-surface labeling
- background labeling (CHO K1 cells; CHO K1, control or unwanted labeling): no unwanted background or mitochondrial labeling
- labeling of peptidoglycan with dye (Escherichia coli; 5 mM endobcnDala, 20 μM probe): not efficiently labeled
- cell-surface labeling (HEK 293T cells; Ac4ManNAl-treated HEK 293T, no wash): robust cell-surface labeling
- background, intracellular or mitochondrial labeling (HEK 293T cells; HEK 293T): no unwanted background or mitochondrial labeling
- cell permeability (HEK 293T cells; HEK 293T): not cell permeable

Molecule: NC(CNC(=O)OC[C@@H]1[C@@H]2CCC#CCC[C@@H]21)C(=O)O (some centres unmarked) [Compound 14]
- metabolic incorporation of D-amino acid (Escherichia coli): similarly to the Gram-positive bacteria
- effect of excess D-alanine on labeling [4]: excess D-alanine decreases the fluorescence intensity

Molecule: cresyl violet
- Φfl of the standard [5]: 0.54
